Measured values as given in the NIST ThermoML archive (doi:10.1021/je3010535).
Where “and” joins values, the source holds several entries; their conditions need not be identical. Identical values can stand only once. ± gives the expanded uncertainty stated by the source.

Test: Henry's Law constant (molality scale); of the first substance listed, at infinite dilution; xn = mol fraction of the nth substance listed
Settings: Liquid, Chromatography, x1 = 0

Row | Structure (SMILES) | Henry's Law constant (274.15 K) [kPa·kg/mol] | Henry's Law constant (313.15 K) [kPa·kg/mol] | Henry's Law constant (326.15 K) [kPa·kg/mol] | Henry's Law constant (294.65 K) | Henry's Law constant (296.15 K) [kPa·kg/mol] | Henry's Law constant (298.15 K) [kPa·kg/mol] | Henry's Law constant (311.15 K) [kPa·kg/mol] | Henry's Law constant (332.15 K) [kPa·kg/mol] | Henry's Law constant (310.15 K) [kPa·kg/mol] | Henry's Law constant (320.15 K) [kPa·kg/mol] | Henry's Law constant (331.15 K) [kPa·kg/mol] | Henry's Law constant (273.25 K) [kPa·kg/mol] | Henry's Law constant (333.15 K) [kPa·kg/mol]
1 | CI [iodomethane] + O | 251 ± 75 | 814 ± 240 | 1560 ± 470 |  |  |  |  |  |  |  |  |  | 
2 | Cl/C=C\Cl [(Z)-1,2-dichloroethene] + O | 131 ± 39 | 636 ± 190 | 1110 ± 330 | 317 kPa·kg/mol and 330 kPa·kg/mol | 405 ± 120 |  |  |  |  |  |  |  | 
3 | COCCO [2-methoxyethan-1-ol] + O |  |  |  |  |  | 0.223 ± 0.067 | 0.665 ± 0.2 | 3.28 ± 0.98 |  |  |  |  | 
4 | COC(C)(C)C [2-methoxy-2-methylpropane] + O | 5.5 |  |  |  | 58 |  |  |  | 59 | 368 | 1650 |  | 
5 | ClC=C(Cl)Cl [trichloroethene] + O | 249 ± 75 | 1670 ± 500 | 2630 ± 790 | 711 kPa·kg/mol and 721 kPa·kg/mol | 691 ± 210 |  |  |  | 2110 ± 630 |  | 4620 ± 1400 |  | 
6 | ClCc1ccccc1 [(chloromethyl)benzene] + O |  |  |  |  |  | 50.6 ± 15 | 139 ± 42 |  |  |  |  | 7.81 ± 2.3 | 
7 | CC(Cl)(Cl)Cl [1,1,1-trichloroethane] + O | 484 ± 150 | 2680 ± 800 | 4510 ± 1400 | 1410 kPa·kg/mol and 1210 kPa·kg/mol | 1430 ± 430 |  |  |  |  |  |  |  | 
8 | C=CCl [chloroethene] + O | 1140 ± 340 | 4200 ± 1300 | 6500 ± 1900 |  |  |  |  |  |  |  |  |  | 
9 | Cc1ccc2ccccc2c1 [2-methylnaphthalene] + O | 4.91 ± 1.5 |  |  | 31.4 kPa·kg/mol and 16.6 kPa·kg/mol | 35 ± 10 |  |  |  | 84.4 ± 25 | 106 ± 32 | 169 ± 51 |  | 166 ± 50
10 | C=C(C)C(=O)OC [methyl methacrylate] + O | 2.57 ± 0.77 |  |  | 24.2 kPa·kg/mol and 12.7 kPa·kg/mol | 24.5 ± 7.4 |  |  |  | 85.1 ± 26 | 132 ± 40 | 250 ± 75 |  | 
11 | ClCC(Br)CBr (stereo not drawn) [1,2-dibromo-3-chloropropane] + O | 1.28 ± 0.38 |  |  | 7.76 kPa·kg/mol and 9.37 kPa·kg/mol | 11.8 ± 3.5 |  |  |  | 28.1 ± 8.4 | 49.7 ± 15 | 101 ± 30 |  | 133 ± 40
12 | BrCBr [dibromomethane] + O | 24 ± 7.2 |  |  | 67.5 kPa·kg/mol and 64.7 kPa·kg/mol | 72.9 ± 22 |  |  |  | 154 ± 46 | 278 ± 83 | 444 ± 130 |  | 
13 | Cc1ccc(C(C)C)cc1 [1-(1-methylethyl)-4-methylbenzene] + O | 157 ± 63 | 2150 ± 860 | 3440 ± 1400 | 389 kPa·kg/mol and 469 kPa·kg/mol | 502 ± 200 |  |  |  | 777 ± 310 |  | 1830 ± 730 |  | 
14 | CC(Cl)Cl [1,1-dichloroethane] + O | 188 ± 56 | 953 ± 290 | 1560 ± 470 |  |  |  |  |  |  |  |  |  | 
15 | Cl/C=C/Cl [(E)-1,2-dichloroethene] + O | 311 ± 93 | 1820 ± 540 | 2900 ± 870 | 956 kPa·kg/mol and 852 kPa·kg/mol | 995 ± 300 |  |  |  |  |  |  |  | 
16 | Clc1ccccc1Cl [1,2-dichlorobenzene] + O | 41.1 ± 12 |  |  | 102 kPa·kg/mol and 115 kPa·kg/mol | 119 ± 36 |  |  |  | 208 ± 62 | 350 ± 100 | 510 ± 150 |  | 
17 | CC(C)(Cl)Cl [2,2-dichloropropane] + O | 423 ± 170 | 3280 ± 1300 | 36600 ± 15000 |  |  |  |  |  |  |  |  |  | 
18 | C=CC#N [acrylonitrile] + O | 1.24 ± 0.37 |  |  | 5.23 kPa·kg/mol and 8.07 kPa·kg/mol | 9.19 ± 2.8 |  |  |  | 25.3 ± 7.6 | 40 ± 12 | 73.9 ± 22 |  | 97.8 ± 29
19 | FC(F)(Cl)Cl [dichlorodifluoromethane] + O | 1660 ± 500 | 40000 ± 12000 | 22600 ± 6800 |  |  |  |  |  |  |  |  |  | 
20 | CC(C)O [propan-2-ol] + O |  |  |  |  |  | 2.14 | 1.19 | 22.9 |  |  |  | 0.088 | 
21 | ClC(Cl)(Cl)Cl [tetrachloromethane] + O | 696 ± 210 | 4230 ± 1300 | 7590 ± 2300 | 1770 kPa·kg/mol and 1580 kPa·kg/mol | 1690 ± 510 |  |  |  |  |  |  |  | 
22 | C#CCO [2-propyn-1-ol] + O |  |  |  |  |  | 0.255 ± 0.076 | 0.754 ± 0.23 | 3.71 ± 1.1 |  |  |  | 0.039 ± 0.012 | 

Row | Structure (SMILES) | Henry's Law constant (274.15 K) [kPa·kg/mol] | Henry's Law constant (313.15 K) [kPa·kg/mol] | Henry's Law constant (326.15 K) [kPa·kg/mol] | Henry's Law constant (294.65 K) | Henry's Law constant (296.15 K) [kPa·kg/mol] | Henry's Law constant (298.15 K) [kPa·kg/mol] | Henry's Law constant (311.15 K) [kPa·kg/mol] | Henry's Law constant (332.15 K) [kPa·kg/mol] | Henry's Law constant (310.15 K) [kPa·kg/mol] | Henry's Law constant (320.15 K) [kPa·kg/mol] | Henry's Law constant (331.15 K) [kPa·kg/mol] | Henry's Law constant (273.25 K) [kPa·kg/mol] | Henry's Law constant (333.15 K) [kPa·kg/mol]
23 | Cc1cc(C)cc(C)c1 [1,3,5-trimethylbenzene] + O | 115 ± 46 | 1330 ± 530 | 2360 ± 940 | 304 kPa·kg/mol and 352 kPa·kg/mol | 408 ± 160 |  |  |  | 719 ± 290 |  | 1830 ± 730 |  | 
24 | ClC(Cl)Cl [trichloromethane] + O | 107 ± 32 | 628 ± 190 | 1170 ± 350 | 301 kPa·kg/mol and 324 kPa·kg/mol | 363 ± 110 |  |  |  | 782 ± 230 |  | 1770 ± 530 |  | 
25 | CC(=O)c1ccccc1 [acetophenone] + O | 0.128 ± 0.039 |  |  | 0.881 kPa·kg/mol and 0.738 kPa·kg/mol | 1.6 ± 0.48 |  |  |  | 2.48 ± 0.75 | 4.6 ± 1.4 | 8.87 ± 2.7 |  | 
26 | CC(=O)CC(C)C [4-methylpentan-2-one] + O | 0.834 ± 0.25 |  |  | 8.08 kPa·kg/mol and 8.27 kPa·kg/mol | 9.34 ± 2.8 |  |  |  | 37.2 ± 11 | 72.5 ± 22 | 164 ± 49 |  | 236 ± 71
27 | ClC/C=C\CCl [cis-1,4-dichloro-2-butene] + O | 3.03 |  | 1380 |  | 31.9 |  |  |  | 102 | 182 | 492 |  | 
28 | ClCC(Cl)CCl [1,2,3-trichloropropane] + O | 2.98 ± 0.89 |  |  | 23 kPa·kg/mol and 13.6 kPa·kg/mol | 28.3 ± 8.5 |  |  |  | 78.2 ± 23 | 113 ± 34 | 208 ± 62 |  | 370 ± 110
29 | ClC(Cl)C(Cl)(Cl)Cl [pentachloroethane] + O | 43.4 ± 17 | 471 ± 190 | 1070 ± 430 | 133 kPa·kg/mol and 141 kPa·kg/mol | 163 ± 65 |  |  |  | 268 ± 110 | 505 ± 200 | 989 ± 400 |  | 
30 | ClC(Cl)C(Cl)Cl [1,1,2,2-tetrachloroethane] + O | 3.6 ± 1.1 |  |  | 31.2 kPa·kg/mol and 17.9 kPa·kg/mol | 34.4 ± 10 |  |  |  | 99 ± 30 | 156 ± 47 | 262 ± 79 |  | 
31 | ClCCCl [1,2-dichloroethane] + O | 42.9 ± 13 |  |  | 98.2 kPa·kg/mol and 102 kPa·kg/mol | 105 ± 32 |  |  |  | 211 ± 63 | 389 ± 120 | 517 ± 160 |  | 
32 | Cc1cccc2ccccc12 [1-methylnaphthalene] + O | 3.74 ± 1.1 |  |  | 23.4 kPa·kg/mol and 13.3 kPa·kg/mol | 27.8 ± 8.3 |  |  |  | 74 ± 22 | 87.9 ± 26 | 153 ± 46 |  | 150 ± 45
33 | CCCCC(CC)CO (stereo not drawn) [2-ethyl-1-hexanol] + O |  |  |  |  |  | 1.91 ± 0.76 | 4.09 ± 1.6 | 100 ± 40 |  |  |  | 0.0797 ± 0.032 | 
34 | CCCc1ccccc1 [propylbenzene] + O | 182 | 1900 | 3160 |  | 505 |  |  |  | 412 |  | 1920 |  | 
35 | C=CCCl [3-chloro-1-propene] + O | 255 ± 76 | 1350 ± 410 | 3170 ± 950 |  |  |  |  |  |  |  |  |  | 
36 | CCCCOCCO [2-butoxyethan-1-ol] + O |  |  |  |  |  | 0.269 ± 0.081 | 0.904 ± 0.27 | 4.27 ± 1.3 |  |  |  |  | 
37 | Brc1ccccc1 [bromobenzene] + O | 56.1 ± 17 |  |  | 138 kPa·kg/mol and 147 kPa·kg/mol | 161 ± 48 |  |  |  | 273 ± 82 | 470 ± 140 | 708 ± 210 |  | 
38 | C1COCCO1 [1,4-dioxane] + O | 0.0629 ± 0.019 |  |  | 0.482 kPa·kg/mol and 0.35 kPa·kg/mol | 0.419 ± 0.13 |  |  |  | 0.84 ± 0.25 | 2 ± 0.6 | 3.92 ± 1.2 |  | 
39 | CC#N [acetonitrile] + O | 0.21 ± 0.084 |  |  | 1.41 kPa·kg/mol and 1.55 kPa·kg/mol | 1.7 ± 0.68 |  |  |  | 5.36 ± 2.1 | 12.6 ± 5.1 | 6.17 |  | 
40 | CCOCC [diethyl ether] + O | 16 ± 5 |  |  | 68 kPa·kg/mol and 70 kPa·kg/mol | 77 ± 23 |  |  |  | 206 ± 62 | 427 ± 130 | 803 ± 240 |  | 
41 | CCC#N [propanenitrile] + O | 0.302 ± 0.091 |  |  | 2.3 kPa·kg/mol and 2.2 kPa·kg/mol | 2.78 ± 0.83 |  |  |  | 5.36 ± 1.6 | 11 ± 3.3 | 14 ± 4.2 |  | 
42 | c1ccc2ccccc2c1 [naphthalene] + O | 5 ± 1.5 |  |  | 31.7 kPa·kg/mol and 17.8 kPa·kg/mol | 34.7 ± 10 |  |  |  | 90.2 ± 27 | 116 ± 35 | 196 ± 59 |  | 278 ± 83
43 | O=[N+]([O-])c1ccccc1 [nitrobenzene] + O | 0.175 ± 0.053 |  |  | 1.06 kPa·kg/mol and 1.11 kPa·kg/mol | 2.58 ± 0.78 |  |  |  | 4.13 ± 1.2 | 8.57 ± 2.6 | 17.6 ± 5.3 |  | 
